Laboratory results published in ChEMBL document CHEMBL1155857, “Benzodiazepine ligands can act as allosteric modulators of the Type 1 cholecystokinin receptor” (Bioorg Med Chem Lett, 2008).

Target: T1, Cholecystokinin receptor type A (Rattus norvegicus) (UniProt P30551)
T1 sequence (whole entry): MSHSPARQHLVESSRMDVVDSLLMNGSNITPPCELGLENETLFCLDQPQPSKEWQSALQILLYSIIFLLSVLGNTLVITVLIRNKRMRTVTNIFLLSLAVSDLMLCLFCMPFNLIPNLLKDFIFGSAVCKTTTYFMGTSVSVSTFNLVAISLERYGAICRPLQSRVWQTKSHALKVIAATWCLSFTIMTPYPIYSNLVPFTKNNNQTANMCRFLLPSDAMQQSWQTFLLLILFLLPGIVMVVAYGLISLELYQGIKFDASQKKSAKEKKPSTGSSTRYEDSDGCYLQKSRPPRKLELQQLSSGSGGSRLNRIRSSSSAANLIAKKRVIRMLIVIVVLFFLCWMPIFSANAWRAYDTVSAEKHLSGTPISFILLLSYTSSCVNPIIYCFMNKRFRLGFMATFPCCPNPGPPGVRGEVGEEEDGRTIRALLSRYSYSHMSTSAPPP
Assay: Displacement of [125I]CCK from rat CCK1 receptor expressed in CHO cells
Format: cell-based

Work on `CN1C(=O)[C@@H](NC(=O)c2cc3ccccc3[nH]2)N=C(c2ccccc2)c2ccccc21` yielded a pKb of 8.35.
